Results on four compounds are retold here after patent US5540861A (priority 1994, dated 1996).

Data set [1] in a line: in vivo. The settings on record: po.
For data set [2] the following is noted: in vivo.

For `CCCCc1cc([N+](=O)[O-])c(O)c([N+](=O)[O-])c1` [DNBP (C4), 2,6dinitro-4-butylphenol], in data set [1], the LD50 is 30 mg/kg.
Consider `CCO` [Ethanol], for which the “ORAL LD50” value in data set [2] is 7,080 mg/kg.
Consider `CCCCCCCCCc1cc([N+](=O)[O-])c(O)c([N+](=O)[O-])c1` [DNNP (C9), 2,6dinitro-4-nonylphenol], for which the LD50 in data set [1] was 50 mg/kg.
For the compound `[Cl-].[Na+]` [Sodium Chloride], the “ORAL LD50” value in data set [2] was 3,000 mg/kg.

As usually defined, the LD50 is the dose expected to kill half of the subjects tested. The low end stands for a more toxic substance, the high end for a less toxic substance.
